# Laboratory results published in patent publication US20170363632A1, “Biomarker Kit for Metastatic Breast Cancer Prognosis and Uses Thereof” (University of Maryland, Baltimore, priority 2016, published 2017).
# Entries after “also recorded” stand apart in the source; their conditions may differ.
# T1: GST-obscurin-PH (human, UniProt Q5VST9 5895-6004)
# T1 construct: domain: Pleckstrin Homology (PH) domain; Expressed in bacteria, about 37 kDa; also called GST-obscurin-PH domain; recombinant obscurin-PH domain fused to GST; not shown: glutathione-S-transferase (GST) tag encoded by the PGEX vector (GE Healthcare)
# T1 sequence (looked up): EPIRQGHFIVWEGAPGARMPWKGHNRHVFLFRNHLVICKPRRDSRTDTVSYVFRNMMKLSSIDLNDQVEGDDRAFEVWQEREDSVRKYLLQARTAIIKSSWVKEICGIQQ
# B1: HIS-PI3K/p85-SH3 (other, human, UniProt O00459 4-80, looked up)
# chain: PEGFQYRALYPFRRERPEDLELLPGDVLVVSRAALQALGVAEGGERCPQSVGWMPGLNERTRQRGDFPGTYVEFLGP
# notes: domain: Src Homology 3 (SH3) domain; Expressed in bacteria, about 10 kDa; also called His-tagged PI3K/p85-SH3 protein; HIS-PI3K-p85/SH3 domain; not shown: His tag and vector-encoded residues of pET-30a(+)
# Assays:
# [1] = system: PI3K pathway (phosphorylation levels of AKT) in obscurin-knockdown MCF10A cells; test: Western blot of AKT phosphorylation after PI3K inhibitor treatment; format: cell-based
# Protocol: (§1) Cell lysates were prepared in radioimmuno-precipitation assay (RIPA) buffer supplemented with cocktails of protease inhibitors (Roche, Mannheim, Germany), and phosphatase inhibitors ([…], 100 mM Sodium Flouride, 115 mM Sodium Molybdate, 100 mM Sodium Orthovanadate, 400 mM Sodium Tartrate Dihydrate, 100 mM β-Glycerophosphate, 100 mM Sodium Pyrophosphate, and 10 mM EGTA). Protein lysates were electrophoresed on SDS-NuPAGE gel (Thermo Fisher Scientific, Waltham, Mass.), transferred to nitrocellulose membranes, and probed with primary antibodies as specified in the text, and the appropriate […] secondary antibodies (Jackson ImmunoResearch Laboratories). Immunoreactive bands were visualized using AMERSHAM ECL prime western blotting detection reagent (GE Healthcare Life Sciences), and densitometry was performed with Image J software. Treatment of cells followed by lysate preparation and immunoblotting analysis was repeated at least three independent times.
# (§2) To verify the effectiveness of the two inhibitors in suppressing the PI3K pathway, whether the phosphorylation levels of AKT were reduced following treatment was examined. […] Whether inhibition of PI3K reverses epithelial to mesenchymal transition in obscurin-knockdown cells was evaluated.
# [2] = system: obscurin-knockdown MCF10A cells; test: Western blot of epithelial and mesenchymal (EMT) proteins after PI3K inhibitor treatment; format: cell-based
# Protocol: as §1, §2
# [3] = system: obscurin-knockdown MCF10A cells; test: Mammosphere culture in ultra-low attachment conditions; format: cell-based; parameters: mammosphere formation: dose or concentration left out as unconfirmed; settings: for reduction in mammosphere formation: spheres ≧100 μm
# Protocol: Single MCF10A cells stably transduced with obscurin shRNA were plated in ultralow attachment plates (Corning, Lowell, Mass., USA) at a density of 10,000 cells/mL in 2 mL serum-free growth media (DMEM/F12 with GlutaMAX™), supplemented with insulin (10 μg/mL), hydrocortisone (0.5 μg/mL), cholera toxin (100 ng/mL), epidermal growth factor (20 ng/mL), 1% penicillin-streptomycin and puromycin (1.5 μg/mL). Twenty-four hours following initial plating, cell cultures were supplemented with 2 mL serum-free growth media that contained the indicated concentration of LY294002, BKM120, or DMSO vehicle control every day for 10 days at which time point spheres were measured and those ≧100 μm were counted as tumor spheres.
# [4] = system: adherent MCF10A obscurin-knockdown or scramble control cells; test: Cell viability, AlamarBlue assay; format: cell-based; settings: different concentrations of BKM120, 24 h
# Protocol: (§3) Cell viability of MCF10A obscurin-knockdown and scramble control cells treated with the specified concentrations of LY294002 and BKM120 inhibitors or vehicle DMSO for 24 h was measured using the AlamarBlue assay (Life Technologies) (9). In brief, the AlamarBlue reagent was added to the cell culture at 10% v/v and incubated for 16 h at 37° C., 5% CO2. The percentage (%) of AlamarBlue reduction was determined by measuring absorbance at 550 and 620 nm. Data are presented as the percentage of AlamarBlue reduced per number of cells.
# [5] = system: obscurin-knockdown MCF10A cells; test: Wound healing assay; format: cell-based; settings: DMSO vehicle ≧20%
# Protocol: Wound healing was measured by growing confluent MCF10A cell monolayers stably expressing obscurin shRNA in six-well tissue culture dishes (Corning). A scrape was made through the monolayer with a sterile plastic pipette tip and fresh media containing LY294002, BKM120, or DMSO vehicle control was added at the indicated concentrations. Images were taken with an inverted microscope (10× objective) at time 0 h and after a 6 h incubation period at 37° C., 5% CO2. Migration was expressed as the average of the difference between the measurement at time zero and 6 h obtained from 3 independent experiments.
# [6] = system: obscurin-knockdown MCF10A cells; test: Microchannel single cell migration; format: cell-based; parameters: dose or concentration left out as unconfirmed
# Protocol: The microchannel device was fabricated by standard lithography and coated with 20 μg/mL collagen type I (BD Biosciences, San Jose, Calif.) (12-16). Cells were trypsinized, resuspended in serum-containing media to neutralize the trypsin, and subsequently washed in serum-free media. A suspension of 5×10^4 cells was added to the inlet port, and cells were transported along the seeding channel by pressure-driven flow. Within 5 min, the cell suspension was removed and replaced with 100 μL of serum-free media containing the specified concentrations of LY294002, BKM120, or DMSO vehicle control. Serum-containing media with the indicated concentrations of LY294002, BKM120, or DMSO was added to the top-most inlet port, thus forming a chemoattractant gradient. Chambers were placed in an enclosed, humidified microscope stage at 5% CO2 and 37° C. (TIZ, Tokai Hit Co., Japan or Okolab, Italy). […] Instantaneous cell velocity was calculated by dividing each interval displacement by the time interval (20 min), and the mean velocity for a given cell was computed by averaging instantaneous velocities for all time intervals. Chemotactic index was calculated by dividing the end-to-end displacement by the total path length of the cell. […]
# [7] = system: obscurin-knockdown MCF10A cells; test: Matrigel invasion assay; format: cell-based; settings: dose-dependent, 16 h
# Protocol: Invasion was measured by adding 250,000 cells suspended in 0.5 mL growth media containing the specified concentration of LY294002, BKM120, or DMSO vehicle control to the upper chamber of a Matrigel-coated invasion chamber (BD Biosciences, San Jose, Calif.). The lower chamber contained growth media supplemented with 10% FBS. The inserts were incubated at 37° C., 5% CO2 for 16 h. At the end of the 16 h incubation period, the cells that had invaded in the lower chamber were fixed and stained with 0.5% crystal violet in 20% methanol. The number of invaded cells was quantified by counting at least 6 random fields from 3 independent experiments under an inverted light microscope (Olympus IX51) with a 10× objective.
# [8] = system: MCF10A obscurin-knockdown cells; test: Bright-field microscopy of cell morphology and cell-cell junctions; format: cell-based; settings: 1 mM BKM120
# Description: Taken together, these findings indicate that blockade of the PI3K pathway in obscurin-depleted breast epithelial cells via pharmacological treatment or molecular means effectively reverses epithelial to mesenchymal transition.
# [9] = Cell viability, AlamarBlue assay; format: cell-based; settings: human, adherent MCF10A obscurin-knockdown or scramble control cells; 25 µM LY294002, 24 h; read-out: decrease in cell viability (reduction of AlamarBlue)
# Protocol: as §3
# control GST-protein = target: T2, control GST-protein (UniProt P08515 1-218 = GST); test: GST pull-down on glutathione-Sepharose beads, immunoblot with His-tag antibody
# T2 construct: Negative control in the GST pull-down; also called GST-alone
# Protocol: GST-pull down assays were performed (19, 20). Equivalent amounts of control GST-protein and GST-obscurin-PH were bound to glutathione-Sepharose beads and incubated with 3 mg/mL of His-tagged PI3K/p85-SH3 protein overnight at 4° C. in pull-down buffer (50 mM Tris, pH 7.5, 120 mM NaCl, 10 mM NaN3, 2 mM DTT, and 0.5% Tween). At the end of the incubation period, beads were washed five times with wash buffer (PBS with 10 mM NaN3 and 0.1% Tween), and bound proteins were eluted with 2× LDS buffer (Invitrogen), followed by boiling at 95° C. for 10 min and separation on a 4-12% bis-Tris gel. A His6-antibody (sc-803, Santa Cruz Biotechnology) was used for detection of immunoreactive bands with the Tropix chemiluminescence detection kit (Applied Biosystems).
# GST-obscurin-PH = target: T1, GST-obscurin-PH; test: SPR, Biacore 3000; GST-obscurin-PH immobilized on CM5 chip, HIS-PI3K/p85-SH3 as analyte at 8-250 nM; 1:1 Langmuir model
# Protocol: Surface plasmon resonance was performed using a BiaCore 3000 instrument as described (6, 19, 21). In particular, the GST-obscurin-PH domain was used as ligand and was immobilized on a carboxymethyl-dextran sensor (CM5) chip, while the HIS-PI3K-p85/SH3 domain was used as analyte at varying concentrations ranging from 8-250 nM. The flow rate for analyte injection was 20 μl/min. For each analyte concentration, association was measured for 180 sec and dissociation was measured over another 180 sec. Data were evaluated with the 1:1 Langmuir model and the Heterogeneous Ligand model (BIAevaluation Software 3.1, Biacore). The association (kₐ, M⁻¹ s⁻¹) and dissociation (kd, s⁻¹) rate constants as well as the association (KA, M⁻¹) and dissociation (KD, M) equilibrium constants were determined.
# T2 sequence (P08515 whole entry): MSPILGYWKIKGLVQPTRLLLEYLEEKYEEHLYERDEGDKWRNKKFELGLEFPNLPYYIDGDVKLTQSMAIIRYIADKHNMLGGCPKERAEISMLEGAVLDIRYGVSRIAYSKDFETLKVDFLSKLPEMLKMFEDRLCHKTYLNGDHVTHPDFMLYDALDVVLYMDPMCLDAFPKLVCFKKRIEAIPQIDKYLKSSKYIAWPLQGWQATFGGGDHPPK
molecule,measurement,setting,value
Nc1cc(C(F)(F)F)c(-c2cc(N3CCOCC3)nc(N3CCOCC3)n2)cn1 [BKM120],phosphorylation level of AKT at serine-473 compared to vehicle DMSO,[1]; 1 μM BKM120,0.3 fold
same,phosphorylation level of AKT at threonine-308 compared to vehicle DMSO,[1]; 1 μM BKM120,0.1 fold
same,expression level of E-cadherin (increase),[2]; 1 μM BKM120,2.1 fold
same,expression level of N-cadherin (decrease),[2]; 1 μM BKM120,0.5 fold
same,expression level of Slug (decrease),[2]; 1 μM BKM120,0.3 fold
same,expression level of Twist (decrease),[2]; 1 μM BKM120,0.5 fold
same,expression level of β-catenin (increase),[2]; 1 μM BKM120,5 fold
same,reduction in mammosphere formation,"[3]; 0.1 mM BMK120, 10 days",18%
same,reduction in mammosphere formation,"[3]; 0.5 mM BMK120, 10 days",89%
same,mammosphere formation,"[3]; BKM120, 10 days",completely eliminated mammosphere formation
same,cell viability (reduction of AlamarBlue) versus vehicle DMSO,[4],No significant changes; also recorded: did not affect their survival and growth
same,wound healing,"[5]; 1 mM BKM120, after 6 h",~6%
same,migration speed compared to DMSO treated cells,"[6]; microchannels 6, 10, 20 and 50 mm wide",significantly reduced migration
same,chemotactic index (CI) relative to vehicle control,[6]; statistically significant in narrow channels (6 mm),lower chemotactic index
same,reduction in cell invasiveness relative to DMSO,[7]; BKM120 0-1 mM,15-60%
same,cell morphology and cell-cell junction formation,[8],(re)acquired an epithelial appearance and were able to form cell-cell junctions
O=c1cc(N2CCOCC2)oc2c(-c3ccccc3)cccc12 [LY294002],phosphorylation level of AKT at serine-473 compared to vehicle DMSO,[1]; 25 μM LY294002,0.4 fold
same,phosphorylation level of AKT at threonine-308 compared to vehicle DMSO,[1]; 25 μM LY294002,0.4 fold
same,expression level of E-cadherin (increase),[2]; 25 μM LY294002,1.8 fold
same,expression level of N-cadherin (decrease),[2]; 25 μM LY294002,0.3 fold
same,expression level of Slug (decrease),[2]; 25 μM LY294002,0.6 fold
same,expression level of Twist (decrease),[2]; 25 μM LY294002,0.4 fold
same,expression level of β-catenin (increase),[2]; 25 μM LY294002,1.3 fold
same,reduction in mammosphere formation,"[3]; 5 mM LY294002, 10 days",36%
same,reduction in mammosphere formation,"[3]; 10 mM LY294002, 10 days",58%
same,"cytotoxicity at 24 h, 25 µM",[9],~5%
same,wound healing,"[5]; 25 mM LY294002, after 6 h",~6%
same,reduction in cell invasiveness relative to DMSO,[7]; LY294002 0-25 mM,50-95%
B1,binding result,control GST-protein,no binding (tested: 3 mg/mL of His-tagged PI3K/p85-SH3)
same,Kd,GST-obscurin-PH,~50 nM
